{"source": "paper PMC11219833", "about": "“Design and radiosynthesis of class-IIa HDAC inhibitor with high molar activity via repositioning the ^18F-radiolabel” (Scientific Reports, 2024)", "key": {"[1]": {"system": "endogenous class-I/IIb HDACs in HT-29 cells", "assay": "Whole-cell assay of endogenous class-I/IIb HDAC inhibition in HT-29 cells (Boc-Lys-Ac substrate)", "format": "cell-based", "conditions": "Homo sapiens, class-I/IIb selective substrate Boc-Lys-Ac", "excerpt": "(§1) The next step was to determine the specificity, selectivity and potency of NT376 to class-IIa HDACs against endogenous class-IIa HDACs in HT-29 cells using the class-distinguishing substrates similar to our previous work[23].\n(§2) We utilized the well-established fluorogenic assay to screen NT376 against recombinant human HDAC isoforms and against endogenous HDACs in HT-29 cells. The class IIa HDAC fluorogenic assay functions in a two-step process: first, the class IIa HDAC removes the trifluoroacetate (TFA) from TFA-lysine substrate to generate free lysine which is recognized by trypsin and releases a fluorescent fluorophore (intact substrate is not recognized by trypsin) that can be detected using microplate reader. The IC50 was determined using nonlinear fit curves (GraphPad Prism) (% HDAC activity inhibition vs. compound concentration). […]\n(§3) The cell-based HDAC inhibitor assays were performed in HT-29 cells (ATCC). […] The cells were then washed with HDAC Assay Buffer (RPMI 1640 media without phenol red, Gibco, containing 0.1% FBS), re-collected by centrifugation, resuspended in HDAC Assay Buffer, and counted. […] Fluorescent counts were read with a microplate reader at an excitation wavelength of 360 nm and emitted light was detected at 460 nm."}, "[2]": {"system": "endogenous class-IIa HDACs in HT-29 cells", "assay": "Whole-cell assay of endogenous class-IIa HDAC inhibition in HT-29 cells (Boc-Lys-TFA substrate)", "format": "cell-based", "conditions": "Homo sapiens, class-IIa selective substrate Boc-Lys-TFA, ± SEM", "excerpt": "as §1, §2, §3"}, "recombinant human HDAC6": {"target": "T1, recombinant human HDAC6 (Homo sapiens, UniProt Q9UBN7)", "T1 construct": "purchased BPS Bioscience, Inc", "T1 sequence (Q9UBN7 1-1215)": "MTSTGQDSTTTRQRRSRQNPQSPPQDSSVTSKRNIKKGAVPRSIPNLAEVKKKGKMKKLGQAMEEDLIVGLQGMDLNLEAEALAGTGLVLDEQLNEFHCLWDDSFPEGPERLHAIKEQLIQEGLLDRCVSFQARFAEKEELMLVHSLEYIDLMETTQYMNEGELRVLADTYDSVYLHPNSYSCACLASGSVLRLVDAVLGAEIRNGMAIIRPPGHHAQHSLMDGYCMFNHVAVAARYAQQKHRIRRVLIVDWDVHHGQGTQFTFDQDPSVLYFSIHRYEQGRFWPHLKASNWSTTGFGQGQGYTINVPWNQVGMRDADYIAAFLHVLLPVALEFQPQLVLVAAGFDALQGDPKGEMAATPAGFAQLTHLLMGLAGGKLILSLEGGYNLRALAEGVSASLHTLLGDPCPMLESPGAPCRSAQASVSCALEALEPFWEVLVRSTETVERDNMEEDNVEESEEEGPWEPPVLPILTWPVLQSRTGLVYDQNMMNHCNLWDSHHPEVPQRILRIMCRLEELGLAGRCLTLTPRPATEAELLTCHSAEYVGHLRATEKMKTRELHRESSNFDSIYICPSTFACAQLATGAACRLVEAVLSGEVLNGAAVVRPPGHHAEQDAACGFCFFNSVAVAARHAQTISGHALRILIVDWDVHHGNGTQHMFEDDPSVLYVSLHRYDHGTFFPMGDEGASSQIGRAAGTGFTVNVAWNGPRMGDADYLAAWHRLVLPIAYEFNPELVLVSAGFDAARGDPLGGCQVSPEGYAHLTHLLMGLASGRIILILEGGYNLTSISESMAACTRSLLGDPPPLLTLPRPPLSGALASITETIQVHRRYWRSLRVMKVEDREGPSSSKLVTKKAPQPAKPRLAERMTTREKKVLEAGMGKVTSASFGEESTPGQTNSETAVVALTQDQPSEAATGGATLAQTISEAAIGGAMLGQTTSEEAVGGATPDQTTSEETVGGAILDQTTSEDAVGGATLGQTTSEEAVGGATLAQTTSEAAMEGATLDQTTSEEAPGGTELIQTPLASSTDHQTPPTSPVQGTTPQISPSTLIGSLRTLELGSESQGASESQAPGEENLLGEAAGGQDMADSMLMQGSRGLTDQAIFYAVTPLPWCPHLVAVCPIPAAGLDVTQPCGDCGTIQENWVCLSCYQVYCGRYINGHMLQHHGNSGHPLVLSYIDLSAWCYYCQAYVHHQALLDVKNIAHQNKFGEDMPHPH", "assay": "HDAC isoform inhibition fluorogenic assay (BPS Bioscience kit)", "format": "biochemical", "conditions": "class-IIb", "excerpt": "(§4) We utilized the well-established fluorogenic assay to screen NT376 against recombinant human HDAC isoforms and against endogenous HDACs in HT-29 cells. The class IIa HDAC fluorogenic assay functions in a two-step process: first, the class IIa HDAC removes the trifluoroacetate (TFA) from TFA-lysine substrate to generate free lysine which is recognized by trypsin and releases a fluorescent fluorophore (intact substrate is not recognized by trypsin) that can be detected using microplate reader. The IC50 was determined using nonlinear fit curves (GraphPad Prism) (% HDAC activity inhibition vs. compound concentration). The IC50 measurements were performed in triplicates and experiments were repeated twice with known HDAC inhibitors NT160 and SAHA used as positive and […] controls respectively.\n(§5) Preparation of NT376: A 1.0 mM stock solution of NT376 was prepared in 100% DMSO. 11-dilutions of NT376 were then prepared in HDAC assay buffer with the DMSO adjusted to 2.5% final concentration in the assay medium.\n(§6) NT376 was screened against recombinant human HDACs isoforms using the commercially available HDACs enzyme assay kits (BPS Bioscience, Inc.). The experiments were performed according to the manufacturer protocol."}, "recombinant human HDAC1": {"target": "T2, recombinant human HDAC1 (Homo sapiens, UniProt Q13547)", "T2 construct": "purchased BPS Bioscience, Inc", "T2 sequence (Q13547 whole entry, canonical isoform)": "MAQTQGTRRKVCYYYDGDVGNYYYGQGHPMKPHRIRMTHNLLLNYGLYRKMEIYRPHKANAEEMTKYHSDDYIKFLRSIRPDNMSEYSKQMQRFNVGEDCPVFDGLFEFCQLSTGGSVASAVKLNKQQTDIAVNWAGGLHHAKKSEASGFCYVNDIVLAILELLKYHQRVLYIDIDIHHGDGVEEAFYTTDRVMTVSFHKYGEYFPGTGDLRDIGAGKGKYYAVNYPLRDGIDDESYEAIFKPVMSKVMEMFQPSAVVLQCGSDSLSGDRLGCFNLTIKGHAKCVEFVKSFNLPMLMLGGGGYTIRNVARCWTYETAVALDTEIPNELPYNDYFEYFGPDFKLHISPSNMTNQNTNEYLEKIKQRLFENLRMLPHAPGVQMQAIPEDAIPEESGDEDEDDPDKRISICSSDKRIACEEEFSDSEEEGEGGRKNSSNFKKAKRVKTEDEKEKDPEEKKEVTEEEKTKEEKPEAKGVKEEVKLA", "assay": "HDAC isoform inhibition fluorogenic assay (BPS Bioscience kit)", "format": "biochemical", "conditions": "class-I", "excerpt": "as §4, §5, §6"}, "recombinant human HDAC4": {"target": "T3, recombinant human HDAC4 (Homo sapiens, UniProt P56524)", "T3 construct": "purchased BPS Bioscience, Inc", "T3 sequence (P56524 whole entry, canonical isoform)": "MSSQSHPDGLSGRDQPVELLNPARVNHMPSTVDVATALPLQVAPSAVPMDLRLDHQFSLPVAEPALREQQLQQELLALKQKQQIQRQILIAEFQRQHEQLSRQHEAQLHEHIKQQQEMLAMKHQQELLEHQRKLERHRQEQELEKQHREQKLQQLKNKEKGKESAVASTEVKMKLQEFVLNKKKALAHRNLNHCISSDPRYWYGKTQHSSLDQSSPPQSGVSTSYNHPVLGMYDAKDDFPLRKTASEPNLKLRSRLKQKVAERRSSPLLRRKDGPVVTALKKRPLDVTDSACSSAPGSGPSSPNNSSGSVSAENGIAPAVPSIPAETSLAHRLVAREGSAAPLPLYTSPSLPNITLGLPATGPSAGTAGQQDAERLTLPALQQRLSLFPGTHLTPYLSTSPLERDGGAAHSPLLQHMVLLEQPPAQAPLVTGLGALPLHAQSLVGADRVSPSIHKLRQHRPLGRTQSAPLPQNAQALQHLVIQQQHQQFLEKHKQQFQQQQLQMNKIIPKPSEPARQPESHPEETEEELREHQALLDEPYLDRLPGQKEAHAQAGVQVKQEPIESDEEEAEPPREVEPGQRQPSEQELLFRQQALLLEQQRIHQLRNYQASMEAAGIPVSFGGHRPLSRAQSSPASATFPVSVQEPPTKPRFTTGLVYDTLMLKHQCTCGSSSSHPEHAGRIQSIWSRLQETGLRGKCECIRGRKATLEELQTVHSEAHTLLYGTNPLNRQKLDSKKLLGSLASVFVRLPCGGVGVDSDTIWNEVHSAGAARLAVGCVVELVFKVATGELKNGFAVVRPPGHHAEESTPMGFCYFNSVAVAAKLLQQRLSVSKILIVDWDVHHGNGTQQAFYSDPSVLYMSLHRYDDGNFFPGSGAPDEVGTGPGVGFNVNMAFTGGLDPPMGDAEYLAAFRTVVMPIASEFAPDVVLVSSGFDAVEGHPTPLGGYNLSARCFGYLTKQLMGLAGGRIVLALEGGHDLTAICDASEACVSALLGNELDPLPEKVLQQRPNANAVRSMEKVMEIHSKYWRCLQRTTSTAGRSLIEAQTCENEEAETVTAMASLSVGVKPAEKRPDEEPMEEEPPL", "assay": "HDAC isoform inhibition fluorogenic assay (BPS Bioscience kit)", "format": "biochemical", "excerpt": "as §4, §5, §6"}, "recombinant human HDAC5": {"target": "T4, recombinant human HDAC5 (Homo sapiens, UniProt Q9UQL6)", "T4 construct": "purchased BPS Bioscience, Inc", "T4 sequence (Q9UQL6 whole entry, canonical isoform)": "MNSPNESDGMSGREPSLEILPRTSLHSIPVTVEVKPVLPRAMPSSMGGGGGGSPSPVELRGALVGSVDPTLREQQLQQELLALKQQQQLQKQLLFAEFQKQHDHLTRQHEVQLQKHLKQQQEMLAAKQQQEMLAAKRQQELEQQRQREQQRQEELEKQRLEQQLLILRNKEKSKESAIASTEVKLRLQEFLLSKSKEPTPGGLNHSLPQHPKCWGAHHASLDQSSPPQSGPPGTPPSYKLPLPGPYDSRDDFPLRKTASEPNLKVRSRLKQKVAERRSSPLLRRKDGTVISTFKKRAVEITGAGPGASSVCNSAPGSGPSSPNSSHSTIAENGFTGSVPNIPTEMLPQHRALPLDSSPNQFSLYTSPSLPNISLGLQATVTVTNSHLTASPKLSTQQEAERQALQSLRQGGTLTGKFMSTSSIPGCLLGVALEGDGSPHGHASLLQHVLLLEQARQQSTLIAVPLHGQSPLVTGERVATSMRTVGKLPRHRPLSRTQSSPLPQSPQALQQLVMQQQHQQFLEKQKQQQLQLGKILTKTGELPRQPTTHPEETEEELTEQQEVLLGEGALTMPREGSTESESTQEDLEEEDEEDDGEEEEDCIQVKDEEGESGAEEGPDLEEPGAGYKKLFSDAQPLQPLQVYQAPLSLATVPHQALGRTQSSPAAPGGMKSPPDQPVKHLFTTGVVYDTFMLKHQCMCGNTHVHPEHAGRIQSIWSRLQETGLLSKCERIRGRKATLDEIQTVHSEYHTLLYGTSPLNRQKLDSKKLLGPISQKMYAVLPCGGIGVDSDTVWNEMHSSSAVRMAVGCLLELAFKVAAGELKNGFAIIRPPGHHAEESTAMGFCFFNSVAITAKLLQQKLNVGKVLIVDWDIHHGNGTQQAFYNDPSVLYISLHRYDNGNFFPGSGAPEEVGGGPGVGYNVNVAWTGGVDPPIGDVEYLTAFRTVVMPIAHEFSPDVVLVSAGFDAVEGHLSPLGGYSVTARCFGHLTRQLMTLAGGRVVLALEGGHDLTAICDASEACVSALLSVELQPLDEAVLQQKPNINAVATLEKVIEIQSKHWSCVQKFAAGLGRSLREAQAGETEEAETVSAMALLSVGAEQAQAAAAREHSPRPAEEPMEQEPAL", "assay": "HDAC isoform inhibition fluorogenic assay (BPS Bioscience kit)", "format": "biochemical", "excerpt": "as §4, §5, §6"}, "recombinant human HDAC11": {"target": "T5, recombinant human HDAC11 (Homo sapiens, UniProt Q96DB2)", "T5 construct": "purchased BPS Bioscience, Inc", "T5 sequence (Q96DB2 1-347)": "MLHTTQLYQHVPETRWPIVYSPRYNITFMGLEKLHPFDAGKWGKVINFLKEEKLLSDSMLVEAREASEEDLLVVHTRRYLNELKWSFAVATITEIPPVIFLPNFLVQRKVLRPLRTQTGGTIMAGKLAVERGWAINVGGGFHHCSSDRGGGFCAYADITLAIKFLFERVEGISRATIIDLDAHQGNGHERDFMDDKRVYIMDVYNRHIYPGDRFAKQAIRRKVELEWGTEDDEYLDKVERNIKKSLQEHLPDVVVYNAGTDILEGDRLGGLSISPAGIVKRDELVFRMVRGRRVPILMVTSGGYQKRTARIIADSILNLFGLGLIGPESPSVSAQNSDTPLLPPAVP", "assay": "HDAC isoform inhibition fluorogenic assay (BPS Bioscience kit)", "format": "biochemical", "conditions": "class-IV", "excerpt": "as §4, §5, §6"}}, "data": [{"smiles": "C[C@H](CN(C)Cc1ccccc1)NC(=O)c1ccc(-c2noc(C(F)(F)F)n2)cc1F", "note": "[NT376, (R)-N-(1-(benzyl(methyl)amino)propan-2-yl)-2-fluoro-4-(5-(trifluoromethyl)-1,2,4-oxadiazol-3-yl)benzamide]", "values": [{"measurement": "IC50", "setting": "[1]", "value": "> 4000", "unit": "nM"}, {"measurement": "IC50", "setting": "[2]", "value": "32 ± 7.6", "unit": "nM"}, {"measurement": "IC50", "setting": "recombinant human HDAC6", "value": 5030, "unit": "nM"}, {"measurement": "IC50", "setting": "recombinant human HDAC1", "value": 1480, "unit": "nM"}, {"measurement": "IC50", "setting": "recombinant human HDAC4", "value": 1.26, "unit": "nM"}, {"measurement": "IC50", "setting": "recombinant human HDAC5", "value": 2.85, "unit": "nM"}, {"measurement": "IC50", "setting": "recombinant human HDAC11", "value": 4850, "unit": "nM"}]}]}
